Experimental data from article PMC12738692, “Identification, characterization, and structure-activity relationship of the ASIC3-selective peptide WRPRFa” (Communications Chemistry, 2025).
Residue numbers refer to the chain shown, from its start. Where no end group is shown, it is not given here.

Columns and labels:
Assay type in all cases: cell-based
human ASIC3 [1] = molecular target: T1, human ASIC3 (Homo sapiens, UniProt Q9UHC3); experiment: QPatch II peptide concentration-response (I3s/Ipk); details: WT ASIC3, QPatch II, read-out: EC50 (95% CI)
T1 construct: CHO cells stably expressing human ASIC3 (NM_004769.1)
T1 sequence (Q9UHC3 1-531): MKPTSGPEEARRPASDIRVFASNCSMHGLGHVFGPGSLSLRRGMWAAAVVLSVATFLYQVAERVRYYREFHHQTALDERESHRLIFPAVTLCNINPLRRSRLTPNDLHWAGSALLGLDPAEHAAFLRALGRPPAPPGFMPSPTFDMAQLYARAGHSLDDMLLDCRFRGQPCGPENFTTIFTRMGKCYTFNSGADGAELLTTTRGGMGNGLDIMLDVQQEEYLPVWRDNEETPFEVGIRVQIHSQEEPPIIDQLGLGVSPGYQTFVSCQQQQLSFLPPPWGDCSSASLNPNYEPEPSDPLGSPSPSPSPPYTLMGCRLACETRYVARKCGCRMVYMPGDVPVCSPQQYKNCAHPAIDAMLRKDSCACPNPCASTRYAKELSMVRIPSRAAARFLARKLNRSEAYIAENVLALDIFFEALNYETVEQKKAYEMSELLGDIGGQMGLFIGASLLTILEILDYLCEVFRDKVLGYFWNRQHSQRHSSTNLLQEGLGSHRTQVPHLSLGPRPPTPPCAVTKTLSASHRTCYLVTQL
Procedure: RFamide peptide activity on ASIC3 was measured on the QPatch II platform (Sophion, Ballerup, Denmark) using either a CHO or HEK stable cell line and analyzed with Sophion Analyzer software (version 5.2). Prior to recording, the cells were washed twice in PBS (Gibco, Paisley, UK) and treated with Detachin (Genlantis, San Diego) for 3 min, then resuspended in their respective growth media without serum for a concentration of 2 × 10^6 cells/ml. A minimum of 5 mL of cells was added to the QStirrer, which was placed on the deck of the QPatch II and allowed to incubate at room temperature for a minimum of 20 min.
The bath solution contained 135 mM NaCl, 5 mM KCl, 4.8 mM CaCl2, 1 mM MgCl2, 10 mM HEPES, 10 mM MES, and 10 mM glucose adjusted to pH 7.4 with NaOH. The intracellular solution contained 65 mM CsF, 65 mM CsCl, 10 mM HEPES, 5 mM EGTA, 1 mM MgCl2, adjusted to pH 7.4 with CsOH. Cells were held at -60 mV and ASIC currents were evoked with 3 s applications of pH 6.3 buffer. Peptides were preincubated for at least 2 min. The extracellular solution was changed by dispensing 5 µL of buffer through the ~1.7 µL recording chamber, with a solution switch time of 100 ms, that exchanges 99% of the solution. Signals were acquired at 1 kHz and low-pass filtered at 300 Hz. Experiments performed on QPatch II are specifically indicated in the text.

ASIC3 E378Q = molecular target: T2, ASIC3 E378Q (Homo sapiens, UniProt Q9UHC3, E378Q); experiment: MPC peptide activity on ASIC3 E378Q mutant; details: read-out: EC50 (95% CI)
T2 construct: human ASIC3 (NM_004769.4); P2A-mCherry reporter (C, cleaved yes); expressed in transfected cells; host or cells: CHO cells (85050302, Sigma), transient transfection
T2 sequence (Q9UHC3 1-531 E378Q): T1 sequence (Q9UHC3 1-531) with E378Q
Procedure: We individually mutated the four glutamates to glutamine to remove their charge but maintain the side chain structure (Fig. 4C). We tested each mutant by incubating HEK cells stably expressing ASIC3 or CHO cells transfected with mutant ASIC3 with 30 µM WRPRFa before a pH 6.3 acid stimulus.
All mutagenesis was performed at Genscript, and sequences were verified by nanopore sequencing by Plasmidsaurus (Eugene, OR). The numbering of ASIC3 amino acids is based on RefSeq NP_004760.1. Plasmids were transfected into CHO cells using Lipofectamine 3000 (Thermo) according to the manufacturer’s protocol. Cells were used for patch-clamp recordings 24–48 h after transfection.
CHO and HEK cells were tested in the whole-cell configuration on MPC platforms using an Axopatch 200B amplifier (Axon Instruments, San Jose, CA) and a Digidata 1322A or Digidata 1440A digitizer (Axon) using pClamp 9.2 or 10.7 (Molecular Devices, San Jose, CA), respectively. When testing transfected cells, red fluorescence from the cleaved mCherry reporter was used to identify cells expressing ASIC3, ASIC131, or ASIC313. For cells expressing transfected ASIC1a or ASIC2a, the green signal from the cleaved eGFP reporter was used. All electrophysiology data were analyzed with Clampfit 11.1 (Molecular Devices).

ASIC313 = molecular target: T3, ASIC313 (Homo sapiens, UniProt Q9UHC3); experiment: MPC WRPRFa concentration-response on concatemer ASIC313; details: read-out: lower limit EC50
T3 construct: placing human ASIC1a and human ASIC3 ORFs in tandem; P2A-mCherry reporter (C, cleaved yes); expressed in transfected cells; host or cells: WT CHO cells (85050302, Sigma), transient transfection
T3 sequence (Q9UHC3 1-531) 1: T1 sequence (Q9UHC3 1-531)
T3 sequence (Q9UHC3 1-531) 2: T1 sequence (Q9UHC3 1-531)
Text: For peptide concentration-response curves, Bottom was set to 0 and Top was constrained to ≤ 1 for peptides that approached plateau phase or where I3s/Ipk reached 1. […] For activation- or desensitization-pH curves, Bottom was set to 0 and Top constrained to 1.

human ASIC3 [2] = molecular target: T1, human ASIC3; experiment: pH-dependence of steady-state desensitization (SSD) of ASIC3; details: conditioning pH 7.0, 30 µM
Procedure: Lastly, we tested the effect of 30 µM WRPRFa on SSD of ASIC3. First, we sought to determine if, like activation, WRPRFa also changed the pH-dependence of steady-state desensitization for ASIC3. We preconditioned cells at pH 8.0–7.0 for 20 s to elicit SSD, followed immediately by a test pulse to pH 6.3 (Fig. 7F and G) to measure the fraction of channels that were not desensitized. The current evoked by each pH 6.3 test pulse was normalized to the pH 6.3 pulse following pH 8.0 conditioning and plotted against the conditioning pH to determine the pH-dependence of SSD. For untreated cells, the peak current (Ipk) was recorded, and for WRPRFa-treated cells, the current 3 s after the peak (I3s) was used. Untreated channels were completely desensitized at pH 7.0, while the WRPRFa-treated channels reached a plateau at pH 7.0 with about 30% of channels desensitized. […] The 0.11 unit shift is larger than that reported for RPRFa (0.03 unit shift)[30].

WRPRF-NH2 [WRPRFa]
EC50 (human ASIC3 [1]): 6.31 µM | EC50 (ASIC3 E378Q): 9.59 µM | EC50 (ASIC313): ≥ 12.6 µM | channels desensitized at plateau (human ASIC3 [2]): about 30%
